Results taken from PubChem BioAssay AID463204 (Broad Institute, 2010).
Active and inactive are the calls of the source.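 The calls were made as follows: active = AC50 no more than ten times the top concentration tested, that is within one log above it; inconclusive = flat curve fit with activity between 30% and 70%, or invalid poor fit; inactive = AC50 beyond ten times the top tested dose.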

Each compound was assayed on S. cerevisiae Mot1-301 ts growth rescue, BacTiter-Glo ATP luminescence (assay: restored Mot1-301 yeast growth at 38.5C – whole organism, S. cerevisiae, Mot1-301 ts mutant, luminescence, dose retest, SUMOylation pathway inhibitor project, confirmation (AID 463204);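 also: growth at restrictive 38.5 degrees C of Mot1-301 OY566 strain; actives raise luminescence by restoring growth of the ts mutant at high temperature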).

SMILES	AC50
CC(=O)NCCc1nc2cc(NC(=O)c3ccc(F)cc3)ccc2n1C	> 42 µM (inactive)
CC(=O)c1cccc(NC(=O)CNC(=O)c2sc3ccccc3c2Cl)c1	> 42 µM (inactive)
CCC(=O)c1c[nH]c(C(=O)NCCCn2ccnc2)c1	> 42 µM (inactive)
CCNC(=O)COc1ccc(S(=O)(=O)Nc2ccccc2)cc1	> 21 µM (inactive)
CCCCOC(=O)/C(=C/C=C/c1ccccc1)NC(=O)c1ccccc1	> 42 µM (inactive)
Cc1ccccc1-n1ncc2c([N+](=O)[O-])cc([N+](=O)[O-])cc21	5.35 µM
Cc1cc(S(=O)(=O)NCC(C)C)ccc1OCC(=O)N1CCOCC1	> 42 µM (inactive)
CCOc1ccc2nc(CN3CCN(Cc4ccccc4OCC)C(CCO)C3)ccc2c1 (stereo unspecified)	> 42 µM (inactive)
O=C(c1ccncc1)N(Cc1ccccc1)Cc1nc2ccccc2c(=O)[nH]1	> 42 µM (inactive)
O=S(=O)(Nc1ccc(-c2nc3cccnc3s2)cc1)c1cc(F)ccc1F	> 21 µM (inactive)
COc1ccccc1NC(=S)N(Cc1ccccc1)Cc1cccs1	> 42 µM (inactive)
O=S(=O)(NCc1ccc(Cl)cc1)c1cnc[nH]1	> 42 µM (inactive)
CN(C(=O)C1CCCO1)c1nnc(-c2cnccn2)s1 (stereo unspecified)	> 42 µM (inactive)
CC1=C(C(=O)N2CCOCC2)C(c2ccc(O)cc2)NC(=S)N1 (stereo unspecified)	> 42 µM (inactive)
Cc1ccc(N(CC(=O)Nc2cccc(C)c2)S(=O)(=O)c2cccc3nonc23)cc1	> 21 µM (inactive)
Cc1ccn2cc(-c3cnoc3C)nc2c1	> 42 µM (inactive)
N#CC1=C(SCC(N)=O)NC(=O)CC1c1ccccc1Cl (stereo unspecified)	28.4 µM
O=c1c2ccccc2nc(SCc2nnc(-c3ccccc3)o2)n1-c1ccc(F)cc1F	> 42 µM (inactive)
CC(C)c1onc(C(=O)N(C)Cc2ccccc2)c1[N+](=O)[O-]	> 42 µM (inactive)
CN(C(=O)COC(=O)c1cc2ccccc2cc1O)c1c(N)n(Cc2ccccc2)c(=O)[nH]c1=O	> 42 µM (inactive)
O=C(NC1CCc2ccccc21)c1cc(COc2ccc(F)cc2F)on1 (stereo unspecified)	> 42 µM (inactive)
CC12CC3(C)CC(C)(C1)CC(C(=O)NC(=S)N1CCCC1)(C2)C3	> 42 µM (inactive)
CCOc1ncccc1-c1nc(-c2cccs2)no1	> 42 µM (inactive)
Cc1ccc(NC(=O)CN(C)C(=O)c2cccc(Br)c2)cc1	> 42 µM (inactive)
S=c1[nH]nc(-c2ccccn2)n1/N=C/c1ccccc1	> 42 µM (inactive)
Cc1cc(Cl)c2oc(C(=O)NC3CCC(O)CC3)c(C)c2c1 (stereo unspecified)	> 42 µM (inactive)

SMILES	AC50
CCn1c(=O)n(CC)c2cc(NC(=O)c3ccccc3Cl)ccc21	> 42 µM (inactive)
Cc1ccccc1NC(=O)c1ccccc1NC(=O)c1ccco1	> 42 µM (inactive)
CCOc1ccc(CCN2CN(C3CCCCC3)CNC2=S)cc1OCC	> 42 µM (inactive)
Cn1c(=O)[nH]c(=O)c2c1nc(NCCN)n2CCOc1ccccc1	> 42 µM (inactive)
CCOc1ccc(NC(=O)CC2C(=O)N(c3ccccc3)C(=S)N2Cc2ccccn2)cc1 (stereo unspecified)	> 42 µM (inactive)
c1ccc(OCCCc2nc(-c3cccnc3)no2)cc1	> 42 µM (inactive)
CC(=O)c1ccc(C(=O)N2CCCC(N3CCN(c4ccc(F)cc4)CC3)C2)s1 (stereo unspecified)	> 42 µM (inactive)
CCOP(=O)(OCC)C(NC(=O)c1cccc([N+](=O)[O-])c1)C(Cl)(Cl)Cl (stereo unspecified)	> 42 µM (inactive)
O=S(=O)(c1cccc(-c2nnco2)c1)N1CCCC1	> 42 µM (inactive)
CCn1nc(CC(=O)Nc2ccc(-n3cnnn3)c(C)c2)c2ccccc2c1=O	> 42 µM (inactive)
O=C(CSc1nnc2ccccn12)NNC(=O)c1ccc(Cl)cc1	> 42 µM (inactive)
CC(Oc1ccccc1)C(=O)Nc1ccccc1O (stereo unspecified)	> 42 µM (inactive)
CCN(C(=O)COC(=O)c1cc([N+](=O)[O-])ccc1N1CCOCC1)C1CCCCC1	> 42 µM (inactive)
Cc1ccc(-n2nnnc2C(Cl)(Cl)c2nnnn2-c2ccc(C)cc2)cc1	0.73 µM
COC(=O)c1ccccc1N(C)S(C)(=O)=O	> 42 µM (inactive)
COc1ccccc1N1CCN(C(=O)C2CCN(S(=O)(=O)c3ccc(C)cc3)CC2)CC1	> 42 µM (inactive)
COc1ccccc1NS(=O)(=O)c1cc(Cl)ccc1OC	> 42 µM (inactive)
Cc1c(N=Cc2cc(Br)cc(Br)c2O)cccc1C(=O)O	3.14 µM
CCOc1ccc(Cl)cc1CNc1nnnn1CC	> 42 µM (inactive)
COc1ccc(C(=O)CSc2nnc(CNC(=O)c3ccccc3)n2C)cc1	> 42 µM (inactive)
CC1CC(C)(C)NC(=S)N1CC(=O)NCc1ccc(F)cc1 (stereo unspecified)	> 42 µM (inactive)
CCc1c(C)nc(N2CCN(Cc3ccccc3)CC2)[nH]c1=O	> 42 µM (inactive)
COc1cc(C(=O)Nc2sc3c(c2C(=O)O)CCC(C)C3)cc(OC)c1OC (stereo unspecified)	> 42 µM (inactive)
CCOC(=O)c1sc(NC(=O)CSc2n[nH]c(-c3ccccc3)n2)c(C#N)c1C	20.6 µM
CN(C)S(=O)(=O)c1cccc(NC(=O)C(c2ccccc2)c2ccccc2)c1	> 42 µM (inactive)
CCOc1ccc(C(=O)NNC2CC(=O)N(CCc3ccccc3)C2=O)cc1OC (stereo unspecified)	> 42 µM (inactive)

SMILES	AC50
O=S(=O)(NCc1cccc(C(F)(F)F)c1)NCc1ccccc1F	> 42 µM (inactive)
CCOC(=O)C1=C(C)Nc2ncnn2C1/C=C/c1ccccc1 (stereo unspecified)	> 42 µM (inactive)
COc1cccc(NC(=O)c2nn(C34CC5CC(CC(C5)C3)C4)cc2[N+](=O)[O-])c1	> 42 µM (inactive)
CCOc1ccc(C(=O)Nc2ccc(N3CCN(C)CC3)cc2)cc1[N+](=O)[O-]	> 42 µM (inactive)
Cc1cc(C)n(CCOC(=O)C2C(C=C(Cl)Cl)C2(C)C)n1 (stereo unspecified)	> 42 µM (inactive)
N#C/C(=N\Nc1cccc(F)c1)C(=N)N1CCCCCC1	> 42 µM (inactive)
CC[n+]1c(/C=C(\C)SC)sc2ccccc21	29.5 µM
CC(C)(C)C(=O)C(Cl)C(=O)Nc1ccccc1 (stereo unspecified)	3.35 µM
CC/C(=N\Nc1ccc([N+](=O)[O-])cc1)c1ccccc1	> 42 µM (inactive)
CCC(CC)C(=O)Nc1ccc(S(=O)(=O)Nc2nccs2)cc1	> 42 µM (inactive)
Cc1cc(C)cc(C(=O)NC(CC(N)=O)c2ccc(NCCN3CCOCC3)c([N+](=O)[O-])c2)c1 (stereo unspecified)	> 42 µM (inactive)
CCN1C(=O)c2cccc3c(S(=O)(=O)Nc4ccc(OC)cc4OC)ccc1c23	> 42 µM (inactive)
CC(=O)c1ccc(NC(=O)CSc2nnc(-c3ccco3)o2)cc1	> 42 µM (inactive)
COc1ccc(/C=N/NC(=O)c2c(C)nc3ccccn23)cc1[N+](=O)[O-]	> 42 µM (inactive)
CC(N=C(NC#N)Nc1ccncc1)C(C)(C)C (stereo unspecified)	> 42 µM (inactive)
O=C1CC(c2c[nH]c3ccccc23)C(=O)N1c1ccccc1 (stereo unspecified)	> 42 µM (inactive)
Cc1cc(=O)n2[nH]c(-c3ccc(F)cc3)nc2n1	> 42 µM (inactive)
Cc1nn(C)cc1CNC(=O)C1CCC(=O)N(Cc2cccc(C(F)(F)F)c2)C1 (stereo unspecified)	> 42 µM (inactive)
O=C(Nc1ccc2ccccc2c1)N1CCCN(CCOc2ccccc2)CC1	> 42 µM (inactive)
CN=C(Nc1cccnc1)c1ccccc1	> 42 µM (inactive)
N#CCCN(Cc1cccnc1)C(=O)Nc1cccc(Cl)c1	> 42 µM (inactive)
Fc1cccc(Cl)c1CSc1nnc(CN2CCOCC2)n1-c1ccccc1	> 42 µM (inactive)
Cc1sc2ncnc(Nc3ccccc3)c2c1C	29.7 µM
N#C/C(=C\c1cc([N+](=O)[O-])c(N2CCOCC2)cc1N1CCOCC1)c1nc2ccccc2[nH]1	> 42 µM (inactive)
O=S(=O)(Nc1ccc(N2CCOCC2)cc1)c1cccs1	> 42 µM (inactive)
CC(C)NC(=O)COc1ccc(S(=O)(=O)N(C)Cc2ccccc2)cc1	> 42 µM (inactive)

SMILES	AC50
CS(=O)(=O)Nc1ccccc1C(=O)NCCSCc1ccccc1	> 42 µM (inactive)
Nc1nnc(COc2ccc(Br)cc2Br)s1	> 42 µM (inactive)
CCNC(=O)NC1c2ccccc2CSc2ccccc21 (stereo unspecified)	> 42 µM (inactive)
COc1ccc(CCN(C)CCCC(C#N)(c2ccc(OC)c(OC)c2)C(C)C)cc1OC (stereo unspecified)	> 42 µM (inactive)
Cc1ccc(NC(=S)NC(NC(=O)c2ccccc2C)C(Cl)(Cl)Cl)c(C)c1 (stereo unspecified)	> 42 µM (inactive)
CCc1ccc(NC(=O)N2CCC(c3ccccc3)C2)cc1 (stereo unspecified)	> 42 µM (inactive)
N=c1n(CCCOc2ccc(Br)cc2)c2ccccc2n1CC(N)=O	> 42 µM (inactive)
COc1ccc(-c2csc(Nc3cc(C)ccn3)n2)cc1C	> 42 µM (inactive)
CN=C1SC(CC(=O)Nc2sc3c(c2C#N)CCCC3)C(=O)N1C (stereo unspecified)	> 42 µM (inactive)
Cc1cc(C)cc(C(=O)N2CCC3(CC2)NCCc2[nH]cnc23)c1	> 42 µM (inactive)
COC(=O)CCC(=O)OC1(C)C(=O)C2=CN(CCc3c[nH]c4ccccc34)C(c3ccc(OC)cc3)=CC2=C(Br)C1=O (stereo unspecified)	> 42 µM (inactive)
CCCNC(=O)Cn1sc2nc(C)cc(C)c2c1=O	> 42 µM (inactive)
CCCc1nc(NCc2ccccc2)c(C#N)c2c1CCCC2	> 42 µM (inactive)
CC(C)[C@H](NC(=O)C1(c2ccccc2)CCN(C(=O)OC(C)(C)C)CC1)C(=O)O	> 42 µM (inactive)
COc1ccc(C(=O)Sc2ccc(Cl)cc2)cc1OC	> 42 µM (inactive)
CCN1CCCC(NC(=O)c2scc3c2CCCC3)C1 (stereo unspecified)	> 42 µM (inactive)
O=C(Oc1ccc2c(c1)OCO2)c1cccs1	> 42 µM (inactive)
COC(=O)c1ccc(NC(=O)CCN2CCN(c3ccccc3)CC2)cc1	> 42 µM (inactive)
CCOc1ccc(NC(=O)C2CC(=O)N3CCCN=C3S2)cc1 (stereo unspecified)	> 42 µM (inactive)
COc1ccc(C2CC3(CC(C)(C)NC(=S)N3)Oc3cc(O)cc(C)c32)cc1 (stereo unspecified)	> 42 µM (inactive)
COc1ccc(/C=C2\SC(=S)N(CCCC(=O)Nc3cc(C)on3)C2=O)cc1OC	> 42 µM (inactive)
CC1CN(C(=O)c2cc([N+](=O)[O-])cc([N+](=O)[O-])c2)CC(C)O1 (stereo unspecified)	> 42 µM (inactive)
O=C(NC1CCCCC1)C(c1ccncc1)N(Cc1ccc2c(c1)OCO2)C(=O)C(F)(F)F (stereo unspecified)	> 42 µM (inactive)
